Results as given in US12371402B2, “Mitochondrial activity inhibitors targeting tumoral metabolism” (CENTRE LEON BERARD, priority 2018, dated 2025).

Assays:
[1] = system: mitochondrial ECT complex1; assay: Oxygen consumption in permeabilized tumoral cells (RL, SUDHL4, GRANTA); type: cell-based, human
Procedure: Human Cell lines: RL cells (from ATCC, CRL-2261) and SU-DHL-4 cells (from ATCC, CRL-2957) were grown in flasks in RPMI 1640—Glutamax medium supplemented with 10% fetal bovine serum and 1% penicillin-streptomycin. GRANTA cells were grown in flasks in DMEM-Glutamax medium supplemented with 10% fetal bovine serum and 1% penicillin-streptomycin. Cells were maintained at a constant temperature of 37° C. in a humidified atmosphere containing 5% CO2/95% air.
(§1) Oxygen consumption was measured in a thermostatically controlled oxigraph vessel equipped with a Clarck oxygen electrode at 37° C. (Strathkelvin MS200A system).
(§2) Experiment was started by the addition of 100 μg/ml digitonine and either 5 mM Glutamate plus 2.5 mM Malate or 5 mM Succinate plus 1 μM rotenone, followed by the addition of 500 μM ADP (state 3) then 2 μg/ml Oligomycin (state 4).
Cell lines: RL, SU-DHL-4 or GRANTA cells were centrifuged and counted. A cell suspension (100 million of trypan blue negative cells per ml) was prepared in respiration buffer. 10 million cells were added in the oxigraph chamber containing respiration buffer. The final volume was 1 ml. compound 1 (0.5 to 20 μM) was added to permeabilized cells after the addition of ADP or oligomycin.
(§3) All measures were realized 2 min after drugs addition.

[2] = system: MEF_LKB-/- and MEF_LKB1+/+ cells; assay: WST-1 cell viability test, MEF cells with or without the LKB1 gene; type: cell-based, mouse; conditions: MEF_LKB-/- versus MEF_LKB1+/+, 24 hours
Procedure: (§4) Drugs (compound 1 and Metformin) were initially diluted in DMSO (=vehicle dimethylsulfoxide). Appropriate dilutions of these stocks were performed in DMSO and finally in culture medium; 15 μl of each dilution was distributed in 4 wells (replicates) according to the plate schedule to obtain final drug concentrations (0.1 μM to 1 mM for metformin and 1 μM to 200 μM for compound 1) after cells were added. Control wells with vehicle at the appropriate dilution only were included. Lymphoma cells in exponential phase of growth were counted and assessed for more than 95% viability by trypan blue coloration. […] Adherent cells (MEFs cells and INS-1 cells were seeded the day before to obtain 80% confluence the day of experiment. Culture medium was renewed with 35 μL fresh medium and 15 μl of appropriated drug dilution was then added. These plates were incubated 24 hours at 37° C./5% CO2. Then addition of 5 μl of WST-1 cell proliferation reagent (Roche, #11644807001) was performed, before incubation 2-4 hours at 37° C. and lecture of the absorbance following the manufacturer instructions. WST-1 assays are non-radioactive, rapid and more sensitive than MTT, XTT, or MTS-based assays. The WST-1 assay is based on the cleavage of the tetrazolium salt WST-1 to formazan by cellular mitochondrial dehydrogenases. […] Cell viability was assessed comparing wells containing drugs to those with vehicle only. […]

[3] = system: Follicular Lymphoma (RL model) xenograft; assay: CDX xenograft tumor volume, RL model; type: in vivo, female SCID mice; conditions: 50 mg/kg intraperitoneal five times a week, versus DMSO control
Excerpt: (§5) CDX (cell derived xenografts) models of human NHL were used: Follicular Lymphoma (RL model), Diffuse Large B Cell Lymphoma (SUDHL-4 model). Cells were subcutaneously implanted; since the tumor growth was not homogeneous, it was decided to implant surgically 2×2 mm pieces from these initial tumours. Animals were female SCID mice.
(§6) Mice were randomized when the tumors reach a mean volume of 100 mm^3 for the 2 groups (control and compound 1). […] The endpoints are defined by animal ethics as a tumor diameter of >18 mm, significant weight loss or alteration of animal well-being. In order to assess the effectiveness of the compound 1 on tumorigenesis, tumor volume was measured three times a week. The sizes of the primary tumors were measured using calipers and the tumor volume (TV) was extrapolated to a sphere using the formula TV=4/3 π×r3, by calculating the mean radius from the two measurements. The median and standard deviation were also calculated for each group. Median is preferred to mean in order to exclude the extreme values.
(§7) COMPOUND 1 was administered by intraperitoneal injection five times a week, at dose 50 mg/kg. Control DMSO was administered also by intraperitoneal injection five times a week. […]
(§8) Unless specified, the non-parametric Mann-Whitney test was performed on the tumor volume values (mm^3) measured on the day of the first euthanasia.

INS-1 cells = assay: WST-1 cell viability test, pancreatic neuroendocrine tumor cell line INS-1; type: cell-based
Procedure: as §4

[4] = system: Human B lymphoma and T lymphoma cell lines; assay: WST-1 cell viability test, panel of human B and T lymphoma cell lines; type: cell-based
Excerpt: (§9) RL cells (from ATCC, CRL-2261), SUDHL-4 cells (from ATCC, CRL-2957), GRANTA cells, BJAB Burkitt lymphoma cells, SUDHL4 DLBCL lymphoma cells, REC-1 Mantle lymphoma cells, RL follicular lymphoma cells, MTA NK/T lymphoma cells, HUT-78 Sesary T lymphoma cells, Karpas-384 gamma/delta PTCL lymphoma cells and SR-786 ALCL/Alk+ lymphoma Wild type/rescue MEF_LKB1+/+(mouse embryonic fibroblasts) cells were taken as a control; and mutated MEF_LKB−/− cells in which LKB1 gene was invalidated (Bardeesy et al., 2002). All cells were grown in flasks in RPMI 1640 Glutamax medium 11 mM Glucose supplemented with 10% fetal bovine serum and 1% penicillin-streptomycin medium supplemented with 10% fetal bovine serum and 1% penicillin-streptomycin. Cells were maintained at a constant temperature of 37° C. in a humidified atmosphere containing 5% CO2/95% air.
(§10) Drugs (compound 1 and Metformin) were initially diluted in DMSO (=vehicle dimethylsulfoxide). […] Lymphoma cells in exponential phase of growth were counted and assessed for more than 95% viability by trypan blue coloration. […] The formazan dye produced by viable cells can be quantified by measuring the absorbance at 440 nm. Cell viability was assessed comparing wells containing drugs to those with vehicle only. […]

[5] = system: mitochondrial ECT complex1; assay: Oxygen consumption in permeabilized fresh hepatocytes; type: cell-based; conditions: permeabilized rat liver hepatocytes, state 3, 2 min after addition
Procedure: Rat liver hepatocytes were isolated from overnight-starved animals by enzymatic digestion with collagenase according to the method of Berry and Friend modified by Groen.
Primary hepatocytes were directly used after isolation (for metabolic analyses). Cells were maintained at a constant temperature of 37° C. in a humidified atmosphere containing 5% CO2/95% air. The medium was removed after 4 h (time necessary for cell attachment) and replaced by fresh medium.
as §1, §2
Primary hepatocytes: 5.105 fresh hepatocytes were added in the oxigraph chamber containing respiration buffer (KET buffer: KCl 125 mM, EGTA 1 mM, Tris 20 mM) supplemented with 0.1% BSA, 5 mM inorganic phosphate (Pi). The final volume was 1 ml. Oxygen consumption rate was measured before and after the addition of compound 1 (1, 20, 50 or 100 μM) either in resting (state 2) or phosphorylating (state 3) condition.
as §3

[6] = system: Karpas-384 gamma/delta PTCL lymphoma cells; assay: WST-1 cell viability test, Karpas-384 lymphoma cells; type: cell-based; conditions: Homo sapiens, 24 hours incubation
Excerpt: as §9, §10

[7] = system: Diffuse Large B Cell Lymphoma (SUDHL-4 model) xenograft; assay: CDX xenograft tumor volume, SUDHL-4 model; type: in vivo, female SCID mice; conditions: SUDHL-4 xenograft, 50 mg/kg intraperitoneal five times a week, versus DMSO control
Excerpt: as §5, §6, §7, §8

[8] = system: RL follicular lymphoma cells; assay: WST-1 cell viability test, RL follicular lymphoma cells; type: cell-based; conditions: Homo sapiens, 24 hours incubation
Excerpt: as §9, §10

[9] = system: Karpas-422 DLBCL lymphoma; assay: Apoptosis by Annexin V/PI flow cytometry, Karpas-422; type: cell-based, human; conditions: Karpas-422, 10 μM, 48 hours
Procedure: (§11) All the cells were routinely maintained in RPMI 1640 culture medium 11 mM glucose supplemented with 10% FCS. The day of experiment, cells (80 to 100.10^3/well) in exponential phase of growth were seeded in 96 wells plates, in 100 μl of culture medium final volume, in absence (not treated: NT) or presence of indicated compounds concentrations. Stocks of compounds were 10 mM in DMSO, and final DMSO concentration in assay was 0.1%. The control not treated (NT) assays contains 0.1% DMSO. After 48h of incubation at 37° C., cells were immediately analyzed by flow cytometry. Apoptosis was detected using Annexin V/PI staining protocol, according to manufacturer indications.
(§12) Compounds 2 to 4 (named respectively C2 to C4 in the figures) were tested and compared with IACS-010759 (IACS), an OXPHOS inhibitor in clinical phase 1 trial which is assessed in parallel (Molina et al., 2018).

[10] = system: panel of hematological cell lines; assay: Live cell number by flow cytometry, panel of hematological cell lines; type: cell-based, human; conditions: 10 μM, 48 hours
Procedure: as §11, §12

Row | dose inhibiting oxygen consumption, tumoral cells versus fresh hepatocytes ([1]; permeabilized tumoral cells (RL, SUDHL4, GRANTA) compared with permeabilized fresh hepatocytes) | IC50 compared with IC50 of metformin (INS-1 cells; 24 hours incubation) | IC50 (INS-1 cells; Rattus norvegicus, INS1, 24 hours incubation) | IC50 compared with IC50 of metformin ([4]; all lymphomas, 24 hours incubation, WST-1) | IC50 [6] | IC50 [8] | Structure (SMILES) | mitochondrial oxygen consumption ([1]; permeabilized RL, SUDHL4 and GRANTA cells, state 3, 2 min after addition) | toxicity on cells with or without LKB1 (viability) [2] | tumor growth (tumor volume) [3] | sensitivity of lymphoma cell lines (viability) ([4]; human B and T lymphoma, 24 hours, 1 μM to 200 μM) | mitochondrial oxygen consumption [5] | tumor growth (tumor volume) [7] | apoptosis (apoptotic cells/cell decrease) [9] | number of living cells [10]
1 | about 25 times smaller | far below IC50 of metformin | < 10 µM | far below IC50 of metformin | < 10 µM | < 10 µM | N=C(Nc1ccccc1)SCCCCCCSC(=N)Nc1ccccc1 [compound 1] | inhibits mitochondrial oxygen consumption in all cells tested | more toxic for the cells that do not express the LKB1 protein | reduces tumor growth | sensible to compound 1 | inhibits mitochondrial oxygen consumption in all cells tested | reduces tumor growth | – | –
2 | – | – | – | – | – | – | N=C(Nc1ccc2ccccc2c1)SCCCCCCSC(=N)Nc1ccc2ccccc2c1 [compound 4] | – | – | – | – | – | – | can induce apoptosis | induces a differential decrease in the number of living cells
